Experimental data reported in US20080171710A1, “The Redox/Fyn/c-Cbl Pathway” (priority 2007, published 2008).

Tests used:
[1] = tested on: c-Cbl; type: cell-based, rat
Outline: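 Pre-cleared cell lysates (250 μg total protein) immunoprecipitated with anti-c-Cbl or anti-PDGFRα antibody (2 h, 4° C), then protein A/G agarose overnight at 4° C. Precipitates run on 8% SDS-PAGE and Western blotted with anti-p-Tyr (c-Cbl phosphorylation) or anti-ubiquitin (PDGFR ubiquitylation).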

[2] = tested on: NF-κB-luciferase reporter; experiment: NF-κB-luciferase reporter assay; type: cell-based, rat
Experimental: (§1) Cells were deprived of PDGF-AA for 5 h before re-exposure to PDGF-AA (10 ng/ml) for 1 h for Western blot or 6 h for luciferase assays of pathway activation. Transient transfection was performed using Fugene6 (Roche, Basel, Switzerland ) transfection solution according to the manufacturer's protocol. For the luciferase assay, cells seeded in 12-well plates were transfected with a reporter plasmid SRE-Luc(firefly) or NF-κB-Luc(firefly) (BD-Clontech, Palo Alto, Calif., United States) and an internal control plasmid pRLSV40-LUC. Analyses of luciferase activity were performed according to the protocol of the Dual Luciferase Assay System (Promega, Madison, Wis., United States), which uses an internal control of Renilla luciferase for quantification, and relative light units were measured using a luminometer.

[3] = tested on: SRE-luciferase reporter; experiment: SRE-luciferase reporter assay; type: cell-based, rat
Experimental: as §1

[4] = tested on: c-Met; type: cell-based, rat
Outline: (§2)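 Western blot of cell lysates or sonicated tissue in RAPI buffer, SDS-PAGE to PVDF, primary antibodies (phospho-Erk, phospho-Akt, receptor, phospho-tyrosine), HRP secondary and luminol detection. Signaling analysed in presence of the cognate ligand: EGF for EGFR, NT-3 for TrkC, HGF for c-Met.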

[5] = tested on: EGFR; type: cell-based, rat
Outline: as §2

[6] = tested on: Erk1/2; type: cell-based, rat
[7] = tested on: Akt; type: cell-based, rat
Outline: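 Cells deprived of PDGF-AA for 5 h, then re-exposed to PDGF-AA (10 ng/ml) for 1 h. Lysates in RIPA buffer resolved by SDS-PAGE and immunoblotted with phospho-specific and total Akt or Erk antibodies, detected by HRP chemiluminescence.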

[8] = biological target: T1, Fyn (Rattus norvegicus, UniProt Q62844); type: cell-based
T1 construct: 250 μg of total cell lysates were immunoprecipitated with anti-Fyn antibody; endogenous in cells; host or cells: primary rat O-2A/OPCs
T1 sequence (Q62844 whole entry): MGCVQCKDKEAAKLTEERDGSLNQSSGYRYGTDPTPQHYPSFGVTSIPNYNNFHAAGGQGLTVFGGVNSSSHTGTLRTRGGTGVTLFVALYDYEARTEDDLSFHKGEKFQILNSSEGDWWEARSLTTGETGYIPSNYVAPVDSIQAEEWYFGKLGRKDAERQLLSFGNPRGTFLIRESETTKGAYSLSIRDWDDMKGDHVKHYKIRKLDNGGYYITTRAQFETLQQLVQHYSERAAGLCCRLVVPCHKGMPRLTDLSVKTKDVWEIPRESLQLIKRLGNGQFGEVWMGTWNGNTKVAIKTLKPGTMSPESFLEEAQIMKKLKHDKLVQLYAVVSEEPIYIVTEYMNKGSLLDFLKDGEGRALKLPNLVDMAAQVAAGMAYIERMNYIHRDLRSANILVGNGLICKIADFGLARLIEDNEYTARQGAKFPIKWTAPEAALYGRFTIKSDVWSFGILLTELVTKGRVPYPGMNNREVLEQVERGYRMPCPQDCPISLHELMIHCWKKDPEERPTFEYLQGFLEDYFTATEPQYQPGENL
Outline: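 Rat O-2A/OPC lysates (250 μg total protein) immunoprecipitated with anti-Fyn antibody. Washed Fyn immune complexes assayed for tyrosine kinase activity with a universal tyrosine kinase kit.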

[9] = tested on: PDGFRα; experiment: PDGFRα phosphorylation (Western blot, anti-PDGFRα(pY742)); type: cell-based, rat
[10] = tested on: PDGFRα; type: cell-based, rat
[11] = tested on: O-2A/OPCs; experiment: In vitro BrdU incorporation assay; type: cell-based, rat
Outline: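 Surface antigens stained on live or 2% paraformaldehyde-fixed cells; intracellular ones after ice-cold methanol (4 min) or 0.5% Triton (15 min). Fluorescent secondary antibodies applied for 20 min.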

[12] = 30 nM MeHg, 1 μM Pb, 5 μM paraquat
[13] = 1 mM NAC in the absence of toxicants
[14] = NAC 1 mM, PP1 100 nM or ICI 182,780 200 nM with TMX
[15] = added 1 h before Pb or paraquat

## [CH3][Hg][Cl] [MeHg, methylmercury]
[1]; [12]
  c-Cbl phosphorylation after toxicant exposure: stimulated
[2]; 30 nM MeHg, 24 h
  PDGF-induced NF-κB-luciferase reporter expression: decreased
[3]; 30 nM MeHg
  NT-3-induced expression from SRE-luciferase reporter: no reduction in NT-3-induced expression
[3]; 30 nM MeHg, 24 h
  PDGF-induced SRE-luciferase reporter expression: reduced expression
[4]; MeHg, Pb or paraquat
  levels of c-Met after toxicant exposure: reductions
[5]; MeHg, Pb or paraquat
  levels of EGFR after toxicant exposure: reductions
[6]; 30 nM MeHg
  NT-3-induced Erk1/2 phosphorylation: no reduction in Erk1/2 phosphorylation
[6]; 30 nM MeHg 24 h, 1 μM Pb, 5 μM paraquat
  PDGF-induced Erk1/2 phosphorylation after toxicant exposure: reduced ERK1/2 phosphorylation
[7]; 30 nM MeHg, 24 h
  PDGF-induced Akt phosphorylation: decreased
[8]; [12]
  Fyn activation after toxicant exposure: stimulated Fyn activation
[9]; [12]
  phosphorylation of PDGFRα after toxicant exposure: also reduced
[10]; MeHg 20 nM plus cycloheximide, versus cycloheximide alone
  PDGFRα loss in the presence of cycloheximide: further accelerated receptor loss
[10]; MeHg 30 nM, 1 μM Pb, 5 μM paraquat
  total levels of PDGFRα after toxicant exposure: reduction in levels of the PDGFRα itself
[11]; 20 nM MeHg, stimulation with PDGF
  drop in the percentage of O-2A/OPCs incorporating BrdU: approximately 25%

## CC(=O)N[C@@H](CS)C(=O)O [NAC, N-acetyl-L-cysteine]
[1]; [13]
  effect on levels of c-Cbl phosphorylation without toxicant: did not have any marked effect
[1]; [14]
  effect on TMX-induced activation of c-Cbl: blocked
[1]; added 1 h before MeHg
  effect on MeHg-induced c-Cbl phosphorylation: blocked
[1]; [15]
  effect on Pb- and paraquat-induced c-Cbl phosphorylation: blocked
[1]; co-exposure with Aβ
  effect on Aβ-induced increase in phosphorylated c-Cbl: blocked
[2]; 1 mM NAC with MeHg
  effect on MeHg suppression of Nf-κB reporter activity: rescued normal level
[3]; 1 mM NAC with MeHg
  effect on MeHg suppression of SRE reporter activity: rescued normal level
[4]; NAC added 1 hr before EtOH
  effect on EtOH-induced reduction of c-Met levels: substantial rescue
[4]; NAC with MeHg, Pb, or paraquat
  effect on toxicant-associated reductions in c-Met levels: protected
[5]; NAC added 1 hr before EtOH
  effect on EtOH-induced reduction of EGFR levels: substantial rescue
[5]; NAC with MeHg, Pb, or paraquat
  effect on toxicant-associated reductions in EGFR levels: protected
[6]; 1 mM NAC with EtOH
  effect on EtOH suppression of Erk1/2 phosphorylation: rescued
[6]; co-exposure with Aβ(1-42)
  effect on Aβ(1-42) suppression of PDGF-mediated Erk1/2 phosphorylation: blocked
[6]; co-treatment with MeHg
  effect on MeHg-associated suppression of Erk1/2 phosphorylation: rescued
[6]; co-treatment with Pb or paraquat
  effect on Pb and paraquat effects on Erk1/2 phosphorylation: protected
[7]; 1 mM NAC with EtOH
  effect on EtOH suppression of Akt phosphorylation: rescued
[7]; 1 mM NAC with MeHg
  effect on MeHg suppression of Akt phosphorylation: rescued
[8]; [13]
  effect on basal Fyn activity: only a slight, insignificant effect
[8]; [14]
  effect on TMX-induced activation of Fyn: blocked
[8]; added 1 h before MeHg
  effect on MeHg-induced Fyn activation: blocked
[8]; [15]
  effect on Pb- and paraquat-induced Fyn activation: blocked
[9]; co-exposure with MeHg
  effect on MeHg-induced suppression of PDGFRα phosphorylation: rescued
[10]; [14]
  effect on TMX-induced reductions in levels of PDGFRα: blocked
[10]; NAC added 1 hr before EtOH
  effect on EtOH-induced reduction of PDGFRα levels: substantial rescue
[10]; co-exposure with Aβ
  effect on Aβ-induced reduction in PDGFRα levels: blocked
[10]; together with MeHg
  effect on MeHg-induced reductions in levels of PDGFRα: prevented
[10]; together with Pb (1 μM) or paraquat (5 μM)
  effect on Pb- and paraquat-induced reductions in levels of PDGFRα: protected
[11]; with TMX, 2 days
  effect on TMX effect on cell proliferation: blocked
